# In patent US6800642B2, “Antipsychotic aminomethyl derivatives of 7,8-dihydro-2,6,9-trioxa-3-aza-cyclopenta[a]naphthalene” (Wyeth, priority 2001, dated 2004):
# Where a name gives a salt, the structure may show the parent alone.
# Tested on: dopamine receptors
# Assay: Reduction of mouse locomotor activity (functional antagonism of dopamine receptors in vivo)
# Conditions: sc; male CF-1 mice; horizontal activity counts 10 to 20 minutes after dosing
# Protocol: The antipsychotic activity of the compounds of the invention was established by a determination of functional antagonism of dopamine receptors in vivo, specifically the compounds' ability to reduce mouse locomotor activity according to the method of Martin and Bendensky, J. Pharmacol. Exp. Therap. 229:706-711, 1984, in which mice (male, CF-1, Charles River, 20-30 g) were injected with vehicle or various doses of each drug and locomotor activity was measured for 30 minutes using automated infrared activity monitors (Omnitech—8×8 inch open field) located in a darkened room. ED50's were calculated from the horizontal activity counts collected from 10 to 20 minutes after dosing using a nonlinear regression analysis with inverse prediction.
row,Compound,ED50 for reduction of mouse locomotor activity [mg/kg]
1,"C1=C(c2c[nH]c3ccccc23)CCN(CC2COc3ccc4nocc4c3O2)C1 (stereo not drawn) [Example 3, 8-[4-(1H-Indol-3-yl)-3,6-dihydro-2H-pyridin-1-ylmethyl]-7,8-dihydro-2,6,9-trioxa-3-aza-cyclopenta[a]naphthalene]",≥ 50

# Biological target: T1, dopamine D2 receptor (Rattus norvegicus, UniProt P61169)
# T1 construct: from tissue; host or cells: rat striatal brain tissue homogenate
# T1 sequence (P61169 whole entry): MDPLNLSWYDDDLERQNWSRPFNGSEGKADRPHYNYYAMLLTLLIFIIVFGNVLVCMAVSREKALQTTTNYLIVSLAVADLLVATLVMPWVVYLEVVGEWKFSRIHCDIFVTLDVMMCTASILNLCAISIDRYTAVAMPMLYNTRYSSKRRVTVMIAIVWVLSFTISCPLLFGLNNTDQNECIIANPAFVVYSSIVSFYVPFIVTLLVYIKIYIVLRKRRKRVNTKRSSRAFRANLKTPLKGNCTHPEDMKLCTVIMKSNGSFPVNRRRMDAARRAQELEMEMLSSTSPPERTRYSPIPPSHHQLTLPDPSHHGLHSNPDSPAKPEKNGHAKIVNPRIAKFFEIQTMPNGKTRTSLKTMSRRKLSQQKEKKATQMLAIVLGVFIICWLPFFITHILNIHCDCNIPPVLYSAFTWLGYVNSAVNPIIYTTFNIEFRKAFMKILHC
# Assay: Dopamine D2 receptor affinity, 3H-quinpirole binding in homogenized rat striatal brain tissue
# Conditions: not given
# Protocol: Affinity for the dopamine D2 receptor was established by a modification of the standard experimental test procedure of Seemen and Schaus, European Journal of Pharmacology 203:105-109, 1991, wherein homogenized rat striatal brain tissue is incubated with ^3H-quinpirole and various concentrations of test compound, filtered and washed and counted in a Betaplate scintillation counter.
row,Compound,IC50 [nM]
1,"c1ccc(CNCC2COc3ccc4nocc4c3O2)cc1 (stereo not drawn) [Example 1, Benzyl-(-7,8-dihydro-2,6,9-trioxa-3-aza-cyclopenta[a]naphthalen-8-ylmethyl)-amine]",8.05
2,"c1ccc2c(c1)CCN(CC1COc3ccc4nocc4c3O1)C2 (stereo not drawn) [Example 2, 8-(3,4-Dihydro-1H-isoquinolin-2-ylmethyl)-7,8-dihydro-2,6,9-trioxa-3-aza-cyclopenta[a]naphthalene]",58.8
3,"C1=C(c2c[nH]c3ccccc23)CCN(CC2COc3ccc4nocc4c3O2)C1 (stereo not drawn) [Example 3, 8-[4-(1H-Indol-3-yl)-3,6-dihydro-2H-pyridin-1-ylmethyl]-7,8-dihydro-2,6,9-trioxa-3-aza-cyclopenta[a]naphthalene]",350

# Continued, values first:
row,IC50 [nM],Compound
1,36.7,"Fc1ccc2[nH]cc(CC3CCN(CC4COc5ccc6nocc6c5O4)CC3)c2c1 (stereo not drawn) [Example 4, 8-[4-(5-Fluoro-1H-indol-3-ylmethyl)-piperidin-1-ylmethyl]-7,8-dihydro-2,6,9-trioxa-3-aza-cyclopenta[a]naphthalene]"
2,32.4,"O=C(c1ccc(F)cc1)C1CCN(CC2COc3ccc4nocc4c3O2)CC1 (stereo not drawn) [Example 5, [1-(7,8-Dihydro-2,6,9-trioxa-3-aza-cyclopenta[a]naphthalen-8-ylmethyl)-piperidin-4-yl]-(4-fluoro-phenyl)-methanone]"
3,4.8,"c1ccc2c(CCCNCC3COc4ccc5nocc5c4O3)c[nH]c2c1 (stereo not drawn) [Example 6, 2,3-Dihydro-N-[3-(1H-indol-3-yl)propyl]-1,4-dioxino[2,3-e][2,1]benzisoxazole-2-methanamine]"
4,4.1,"c1ccc(CCCCNCC2COc3ccc4nocc4c3O2)cc1 (stereo not drawn) [Example 7, (7,8-Dihydro-2,6,9-trioxa-3-aza-cyclopenta[a]naphthalen-8-ylmethyl)-(4-phenyl-butyl)-amine]"

# Tested on: not given
# Assay: not given
# Conditions: not given
row,Compound,melting point [°C]
1,"c1ccc(CNCC2COc3ccc4nocc4c3O2)cc1 (stereo not drawn) (as salt: fumarate) [Example 1, Benzyl-(-7,8-dihydro-2,6,9-trioxa-3-aza-cyclopenta[a]naphthalen-8-ylmethyl)-amine]",180
2,"c1ccc2c(c1)CCN(CC1COc3ccc4nocc4c3O1)C2 (stereo not drawn) (as salt: fumarate) [Example 2, 8-(3,4-Dihydro-1H-isoquinolin-2-ylmethyl)-7,8-dihydro-2,6,9-trioxa-3-aza-cyclopenta[a]naphthalene]",175 to 176
3,"C1=C(c2c[nH]c3ccccc23)CCN(CC2COc3ccc4nocc4c3O2)C1 (stereo not drawn) [Example 3, 8-[4-(1H-Indol-3-yl)-3,6-dihydro-2H-pyridin-1-ylmethyl]-7,8-dihydro-2,6,9-trioxa-3-aza-cyclopenta[a]naphthalene]",110

# The next lines start with the values.
row,melting point [°C],Compound
1,172 to 174,"c1ccc(CCCCNCC2COc3ccc4nocc4c3O2)cc1 (stereo not drawn) (as salt: fumarate) (hydrate or solvate) [Example 7, (7,8-Dihydro-2,6,9-trioxa-3-aza-cyclopenta[a]naphthalen-8-ylmethyl)-(4-phenyl-butyl)-amine]"
2,204 to 206,"O=C(c1ccc(F)cc1)C1CCN(CC2COc3ccc4nocc4c3O2)CC1 (stereo not drawn) (as salt: fumarate) [Example 5, [1-(7,8-Dihydro-2,6,9-trioxa-3-aza-cyclopenta[a]naphthalen-8-ylmethyl)-piperidin-4-yl]-(4-fluoro-phenyl)-methanone]"
3,202 to 205,"Fc1ccc2[nH]cc(CC3CCN(CC4COc5ccc6nocc6c5O4)CC3)c2c1 (stereo not drawn) (as salt: oxalate) [Example 4, 8-[4-(5-Fluoro-1H-indol-3-ylmethyl)-piperidin-1-ylmethyl]-7,8-dihydro-2,6,9-trioxa-3-aza-cyclopenta[a]naphthalene]"
4,230,"c1ccc2c(CCCNCC3COc4ccc5nocc5c4O3)c[nH]c2c1 (stereo not drawn) (as salt: oxalate) [Example 6, 2,3-Dihydro-N-[3-(1H-indol-3-yl)propyl]-1,4-dioxino[2,3-e][2,1]benzisoxazole-2-methanamine]"
